In brackets after ≈: the same amount, converted by molar mass. Values belong to the molecule of their own block, whether it stands above or below them.
Legend:
Hepatitis C virus [1] = test: Antiviral activity against HCV assessed as inhibition of viral replication by cell-based assay; assay type: functional, organism-based, Hepacivirus hominis
[2] = Inhibition of N-terminal hexa-histidine tagged HCV NS5B expressed in baculovirus infected insect cells using 12 nucleotide RNA oligo-uridylate primer and complementary poly-adenylate template assessed as incorporation of UMP-[5,6-3H] into the chain elongated from oligo-U primer by TopCount analysis; design: species or system Hepacivirus hominis
[3] = Inhibition of N-terminal hexa-histidine tagged full-length HCV genotype 1b NS5B expressed in baculovirus-infected cells using 5'-biotinylated oligo(rU12), poly(rA) as template-primer assessed as incorporation of [3H]-UTP after 90 mins by Scintillation Proximity Assay; design: species or system Hepatitis C virus subtype 1b
Genome polyprotein = Genome polyprotein (Hepatitis C virus genotype 1b (isolate BK) (HCV), UniProt P26663); test: Inhibition of HCV genotype 1b BK NS5B expressed in Escherichia coli BL21 (DE3) after 1 hr
[4] = Inhibition of N-terminally tagged full-length HCV NS5B using biotinylated oligo(rU12), poly(rA) as template-primer assessed as incorporation of [3H]-UTP after 90 mins by Scintillation Proximity Assay; design: species or system Hepacivirus hominis
Hepatitis C virus [5] = test: Antiviral activity against HCV infected in human HuH7 cells assessed as inhibition of viral replication after 72 hrs by RT-PCR analysis; assay type: functional, organism-based, Hepacivirus hominis; settings: Huh-7, 72 h
Hepatitis C virus [6] = test: Antiviral activity against HCV genotype 1b Con1 infected in human HuH7 cells assessed as inhibition of viral replication; assay type: functional, cell-based, Hepacivirus hominis; settings: genotype 1b Con1, Huh-7
[7] = Octanol-buffer distribution co-efficient, log D of the compound at pH 7.4 by shaking-flask method; assay type: physicochemical
[8] = Solubility of the compound in phosphate buffer at pH 7.2; assay type: physicochemical

Genome polyprotein, sequence (P26663 2420-3010 limits assumed): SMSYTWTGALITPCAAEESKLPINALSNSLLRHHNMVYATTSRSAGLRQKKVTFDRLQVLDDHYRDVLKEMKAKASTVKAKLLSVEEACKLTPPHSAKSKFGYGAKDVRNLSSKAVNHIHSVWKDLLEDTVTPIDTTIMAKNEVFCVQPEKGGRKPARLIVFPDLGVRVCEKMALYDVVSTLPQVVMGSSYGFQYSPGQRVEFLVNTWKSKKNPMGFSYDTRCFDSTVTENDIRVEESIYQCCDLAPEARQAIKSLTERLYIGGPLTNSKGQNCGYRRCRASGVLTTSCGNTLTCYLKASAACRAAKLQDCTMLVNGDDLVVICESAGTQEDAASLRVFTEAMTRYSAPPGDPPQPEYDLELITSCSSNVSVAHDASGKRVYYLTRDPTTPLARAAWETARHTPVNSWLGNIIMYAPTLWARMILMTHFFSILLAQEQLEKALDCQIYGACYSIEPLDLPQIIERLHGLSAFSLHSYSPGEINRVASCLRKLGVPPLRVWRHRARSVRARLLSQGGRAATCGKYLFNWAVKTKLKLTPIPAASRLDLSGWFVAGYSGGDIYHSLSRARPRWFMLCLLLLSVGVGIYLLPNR

Compound: O=C(O)/C=C/c1ccc(NC(=O)C2(NC(=O)c3ccc4c(c3)nc(-c3ccoc3)n4C3CCCCC3)CCCC2)cc1
EC50 (Hepatitis C virus [1]): 550 nM

Compound: O=C(O)c1ccc2c(c1)nc(-c1ccoc1)n2C1CCCCC1
IC50 [2]: 1.6 µM

Compound: CC(C)(NC(=O)c1ccc2c(c1)nc(-c1ccoc1)n2C1CCCCC1)C(=O)Nc1ccc(/C=C/C(=O)O)cc1
IC50 [3]: 40 nM

Compound: COc1ccc(CCNC(=O)c2ccc3c(c2)nc(-c2ccccn2)n3C2CCCCC2)cc1OC
IC50 [2]: 12 µM

Compound: O=C(O)c1ccc2c(C3CCCCC3)c(-c3ccccc3)n(CC(=O)N3CCOCC3)c2c1
EC50 (Hepatitis C virus [1]): 800 nM

Compound: O=C(N[C@H](Cc1c[nH]c2ccc(O)cc12)c1cscn1)c1ccc2c(c1)nc(-c1ccoc1)n2C1CCCCC1
IC50 [4]: 300 nM
EC50 (Hepatitis C virus [5]): 1.7 µM

Compound: O=C(O)COc1ccc2[nH]cc(C[C@H](NC(=O)c3ccc4c(c3)nc(-c3ccoc3)n4C3CCCCC3)C(=O)O)c2c1
IC50 [4]: 27 nM

Compound: C[C@@H](NC(=O)c1ccc2c(c1)nc(-c1ccoc1)n2C1CCCCC1)C(=O)Nc1ccc(/C=C/C(=O)O)cc1
IC50 [4]: 130 nM
EC50 (Hepatitis C virus [5]): 6.9 µM
logD [7]: 2.2
solubility [8]: 171 µM (≈ 90 µg/mL)

Now from value to molecule:

IC50 (Genome polyprotein): 58 nM
Compound: CN(C)C(=O)Cn1c(-c2ccccc2)c(C2CCCCC2)c2sc(C(=O)O)cc21

IC50 (Genome polyprotein): 10 nM
EC50 (Hepatitis C virus [6]): 130 nM
Compound: CC(C)N1CCC(N(C)C(=O)Cn2c(-c3ccccc3)c(C3CCCCC3)c3sc(C(=O)O)cc32)C1 (centres undefined)

IC50 (Genome polyprotein): 19 nM
EC50 (Hepatitis C virus [6]): 150 nM
Compound: CC(C)N1CC[C@@H](N2CCn3c(c(C4CCCCC4)c4sc(C(=O)O)cc43)-c3ccccc3C2)C1

IC50 (Genome polyprotein): 11 nM
EC50 (Hepatitis C virus [6]): 510 nM
Compound: CC(C)CNCc1c(C(=O)O)sc2c(C3CCCCC3)c(-c3ccccc3)n(CC(=O)N(C)C3CCN(C(C)C)C3)c12 (centres undefined)

Reference: ChEMBL document CHEMBL3421554, “Discovery of HCV NS5B thumb site I inhibitors: core-refining from benzimidazole to indole scaffold” (Eur J Med Chem, 2015)
